In paper PMC3407203, “Bisphenol A Binds to the Local Anesthetic Receptor Site to Block the Human Cardiac Sodium Channel” (PLoS ONE, 2012):

Experiments:
[1] = molecular target: T1, hNav1.5 (Homo sapiens, UniProt Q14524); experiment: Voltage dependence of steady-state fast inactivation of hNav1.5, whole-cell patch clamp; assay type: cell-based
T1 construct: expressed in transfected cells; host or cells: HEK293
Description: (§1) Whole-cell patch-clamp experiments were performed at room temperature using an Axopatch 200A operated by Clampex 9.2 software (Axon Instruments, Molecular Devices, USA) and 1–2 MΩ glass electrodes (WPI Inc, USA). […] All reagents were purchased from Sigma Chemical Company (Deisenhofen, Germany) unless otherwise noted. The tip of a constantly running gravity-driven perfusion system was positioned close to the recorded cell and drugs were applied by switching to bath solution containing the indicated concentration. […] Capacitive transients were cancelled, and series resistances (<5 MΩ) were compensated by 65–95%. Leak currents were subtracted digitally online using the P/4 procedure following the test pulses except for recordings of use dependency, where no leak correction was used. […] Fitting parameters (Kd) are given as best fit ± standard error.

[2] = molecular target: T1, hNav1.5; experiment: Activation and current decay of hNav1.5, whole-cell patch clamp; assay type: cell-based; settings: post 100 µM BPA
Description: . The sodium channel conductance GNa was calculated using the following equation: […]
where INa is the amplitude of the current at the voltage Vm, and Erev is the reversal potential for sodium, which was determined for each cell individually. Activation curves were derived by plotting normalized GNa as a function of test potential and fitted using the Boltzmann equation: […]
where GNa,Max is the maximum conductance, Vhalf is the membrane potential at half-maximal activation, Vm is the membrane voltage and k is the slope factor.
Decay time constants were determined by fitting current recordings at test pulses to −10 mV for 40 ms from peak with a single exponential fit.

[3] = molecular target: T2, F1760A mutant of hNav1.5 (Homo sapiens, UniProt Q14524, F1760A); experiment: Tonic block of F1760A mutant hNav1.5 currents, whole-cell patch clamp in transfected HEK293 cells; assay type: cell-based; settings: Vhold −120 mV, tested every 5 s, read-out: Kd of tonic block (Hill fit)
T2 construct: expressed in transfected cells; host or cells: HEK293
Description: (§2) The plasmid DNA of hNav1.5 in pTracer was used (gift from Dirk Isbrandt, Hamburg, Germany) for mutagenesis of F1760A (Qickchange XL kit, Qiagen GmbH, Hilden) and was performed according to the instructions of the manufacturer. HEK293 cells were maintained in Dulbecco’s Modified Eagle’s Medium (Invitrogen, Carlsbad, CA), supplemented with 10% fetal bovine serum, 100 U/ml penicillin and 100 µg/ml streptomycin, and incubated at 37°C with 5% CO2. […] Cells were transfected at 40–70% confluency using Nanofectin (PAA Laboratories GmbH, Pasching, Austria), according to manufacturer’s instructions, with 1 µg of hNav1.5 or the F1760A mutant of hNav1.5 and 0.5 µg EGFP, and distributed onto several 35 mm dishes on the following day. […] Only cells with robust green fluorescence were included in the analysis.
Whole-cell patch-clamp experiments were performed at room temperature using an Axopatch 200A operated by Clampex 9.2 software (Axon Instruments, Molecular Devices, USA) and 1–2 MΩ glass electrodes (WPI Inc, USA). […] All reagents were purchased from Sigma Chemical Company (Deisenhofen, Germany) unless otherwise noted. The tip of a constantly running gravity-driven perfusion system was positioned close to the recorded cell and drugs were applied by switching to bath solution containing the indicated concentration. […]

[4] = molecular target: T2, F1760A mutant of hNav1.5; experiment: Use-dependent current decline of F1760A mutant hNav1.5, repetitive pulsing, whole-cell patch clamp; assay type: cell-based
Description: The plasmid DNA of hNav1.5 in pTracer was used (gift from Dirk Isbrandt, Hamburg, Germany) for mutagenesis of […] kit, Qiagen GmbH, Hilden) and was performed according to the instructions of the manufacturer. HEK293 cells were maintained in Dulbecco's Modified Eagle's Medium (Invitrogen, Carlsbad, CA), supplemented with 10% fetal bovine serum, 100 U/ml penicillin and 100 μg/ml streptomycin, and incubated at 37°C with 5% CO2. Briefly, HEK293 cells were plated at low density on 35 mm dishes 24 hours before transfection. […] Electrophysiology was performed 18-28 hours following transfections. Only cells with robust green fluorescence were included in the analysis.

[5] = set-up: method as in PMID 12387626; settings: cited from earlier work
[6] = molecular target: T1, hNav1.5; experiment: Dissociation constants for resting (Kr) and inactivated (Ki) hNav1.5 channels, whole-cell patch clamp; assay type: cell-based; settings: determined with 30 µM drug; read-out: Kr, dissociation constant for resting channels
Description: The dissociation constant for the resting channels, Kr, of the applied drugs were determined according to [17], [18]: with [drug] being the drug concentration present and Brest being the detected block of resting channels. […] This potential was determined for each cell individually by the above described protocol for steady-state fast inactivation.

[7] = molecular target: T1, hNav1.5; experiment: Tonic block of hNav1.5 currents, whole-cell patch clamp in transfected HEK293 cells; assay type: cell-based; settings: for Kd: test pulse −10 mV at 0.2 Hz, room temperature, read-out: Kd of tonic block (Hill fit)
Description: as §2
as §1, with “used. Currents were filtered at 10 kHz and sampled at 100 kHz, except for steady-state fast inactivation, where a sampling rate of 20 kHz was used.Recordings were obtained 4 min after establishing the whole-cell configuration.” for “used.”, “The block occurring 15 pulses after BPA or ETOH application (Ipost/Ipre = [drawing 1] ) was used” for “Fitting parameters (Kd) are given”, “indicator for tonic block. The resulting single dose response data were fitted with a Hill function using a Levenberg-Marquard algorithm of Origin’s non linear curve fitter, where start and end were set to 0 and 1, respectively.” for “best fit ± standard error.”

[8] = molecular target: T1, hNav1.5; experiment: Use-dependent current decline of hNav1.5, repetitive pulsing, whole-cell patch clamp; assay type: cell-based; settings: for use-dependent block: 30 µM, WT hNav1.5, Vhold −120 mV
Source text: […] Current responses were normalized to the first recorded pulse and the available currents at the 30th pulses were compared.

[9] = cited from earlier work

T1 sequence (Q14524 whole entry): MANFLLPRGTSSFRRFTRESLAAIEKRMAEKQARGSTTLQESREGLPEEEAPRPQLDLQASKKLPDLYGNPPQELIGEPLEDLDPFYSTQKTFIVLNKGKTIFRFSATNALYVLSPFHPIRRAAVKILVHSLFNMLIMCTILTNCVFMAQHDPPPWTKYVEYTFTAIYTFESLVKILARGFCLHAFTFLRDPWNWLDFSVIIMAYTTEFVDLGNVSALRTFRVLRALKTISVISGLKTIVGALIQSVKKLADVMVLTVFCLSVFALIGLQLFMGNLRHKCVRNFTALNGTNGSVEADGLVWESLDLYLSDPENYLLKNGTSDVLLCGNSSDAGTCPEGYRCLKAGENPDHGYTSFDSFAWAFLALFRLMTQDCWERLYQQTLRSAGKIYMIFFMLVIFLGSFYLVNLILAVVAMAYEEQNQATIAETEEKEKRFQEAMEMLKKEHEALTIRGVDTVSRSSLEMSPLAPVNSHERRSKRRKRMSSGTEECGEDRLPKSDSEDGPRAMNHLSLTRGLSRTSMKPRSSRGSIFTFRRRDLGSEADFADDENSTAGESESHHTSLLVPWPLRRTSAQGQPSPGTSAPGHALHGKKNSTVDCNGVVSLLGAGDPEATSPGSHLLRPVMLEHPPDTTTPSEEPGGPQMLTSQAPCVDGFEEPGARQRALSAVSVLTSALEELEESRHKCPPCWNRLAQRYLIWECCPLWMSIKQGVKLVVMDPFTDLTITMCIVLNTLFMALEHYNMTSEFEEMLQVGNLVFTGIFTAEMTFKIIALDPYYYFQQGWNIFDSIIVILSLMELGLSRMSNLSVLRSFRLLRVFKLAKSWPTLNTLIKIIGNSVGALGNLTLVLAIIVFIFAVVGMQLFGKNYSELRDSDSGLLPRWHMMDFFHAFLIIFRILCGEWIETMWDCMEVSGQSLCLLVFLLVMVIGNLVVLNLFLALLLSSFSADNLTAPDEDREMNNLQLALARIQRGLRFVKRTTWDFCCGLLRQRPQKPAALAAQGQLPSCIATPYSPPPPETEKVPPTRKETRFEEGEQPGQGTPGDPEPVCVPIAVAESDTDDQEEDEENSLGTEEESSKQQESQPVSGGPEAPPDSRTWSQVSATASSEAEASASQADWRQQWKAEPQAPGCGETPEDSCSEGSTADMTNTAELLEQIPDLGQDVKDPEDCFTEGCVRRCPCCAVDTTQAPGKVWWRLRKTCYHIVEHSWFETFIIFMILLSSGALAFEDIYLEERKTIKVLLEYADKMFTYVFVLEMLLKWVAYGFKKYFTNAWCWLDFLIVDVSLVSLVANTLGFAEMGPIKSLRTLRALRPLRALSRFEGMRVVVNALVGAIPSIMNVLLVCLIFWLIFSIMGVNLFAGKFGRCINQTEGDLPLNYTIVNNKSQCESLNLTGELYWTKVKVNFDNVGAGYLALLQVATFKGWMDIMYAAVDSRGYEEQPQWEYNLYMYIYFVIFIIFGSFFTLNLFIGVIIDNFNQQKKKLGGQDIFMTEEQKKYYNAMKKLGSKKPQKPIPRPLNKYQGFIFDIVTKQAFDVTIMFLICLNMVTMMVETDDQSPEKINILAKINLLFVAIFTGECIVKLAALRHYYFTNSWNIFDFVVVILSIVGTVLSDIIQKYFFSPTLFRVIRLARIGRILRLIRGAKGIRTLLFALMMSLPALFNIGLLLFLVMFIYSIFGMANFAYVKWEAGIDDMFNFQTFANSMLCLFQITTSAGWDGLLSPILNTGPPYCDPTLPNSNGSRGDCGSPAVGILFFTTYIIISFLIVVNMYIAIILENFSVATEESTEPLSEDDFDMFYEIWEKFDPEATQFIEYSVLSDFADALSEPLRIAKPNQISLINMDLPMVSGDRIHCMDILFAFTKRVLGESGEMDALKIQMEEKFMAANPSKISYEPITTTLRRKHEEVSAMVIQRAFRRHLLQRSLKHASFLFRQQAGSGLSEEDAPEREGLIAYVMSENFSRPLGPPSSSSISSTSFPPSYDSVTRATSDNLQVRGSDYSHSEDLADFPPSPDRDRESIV
T2 sequence (Q14524 whole entry F1760A): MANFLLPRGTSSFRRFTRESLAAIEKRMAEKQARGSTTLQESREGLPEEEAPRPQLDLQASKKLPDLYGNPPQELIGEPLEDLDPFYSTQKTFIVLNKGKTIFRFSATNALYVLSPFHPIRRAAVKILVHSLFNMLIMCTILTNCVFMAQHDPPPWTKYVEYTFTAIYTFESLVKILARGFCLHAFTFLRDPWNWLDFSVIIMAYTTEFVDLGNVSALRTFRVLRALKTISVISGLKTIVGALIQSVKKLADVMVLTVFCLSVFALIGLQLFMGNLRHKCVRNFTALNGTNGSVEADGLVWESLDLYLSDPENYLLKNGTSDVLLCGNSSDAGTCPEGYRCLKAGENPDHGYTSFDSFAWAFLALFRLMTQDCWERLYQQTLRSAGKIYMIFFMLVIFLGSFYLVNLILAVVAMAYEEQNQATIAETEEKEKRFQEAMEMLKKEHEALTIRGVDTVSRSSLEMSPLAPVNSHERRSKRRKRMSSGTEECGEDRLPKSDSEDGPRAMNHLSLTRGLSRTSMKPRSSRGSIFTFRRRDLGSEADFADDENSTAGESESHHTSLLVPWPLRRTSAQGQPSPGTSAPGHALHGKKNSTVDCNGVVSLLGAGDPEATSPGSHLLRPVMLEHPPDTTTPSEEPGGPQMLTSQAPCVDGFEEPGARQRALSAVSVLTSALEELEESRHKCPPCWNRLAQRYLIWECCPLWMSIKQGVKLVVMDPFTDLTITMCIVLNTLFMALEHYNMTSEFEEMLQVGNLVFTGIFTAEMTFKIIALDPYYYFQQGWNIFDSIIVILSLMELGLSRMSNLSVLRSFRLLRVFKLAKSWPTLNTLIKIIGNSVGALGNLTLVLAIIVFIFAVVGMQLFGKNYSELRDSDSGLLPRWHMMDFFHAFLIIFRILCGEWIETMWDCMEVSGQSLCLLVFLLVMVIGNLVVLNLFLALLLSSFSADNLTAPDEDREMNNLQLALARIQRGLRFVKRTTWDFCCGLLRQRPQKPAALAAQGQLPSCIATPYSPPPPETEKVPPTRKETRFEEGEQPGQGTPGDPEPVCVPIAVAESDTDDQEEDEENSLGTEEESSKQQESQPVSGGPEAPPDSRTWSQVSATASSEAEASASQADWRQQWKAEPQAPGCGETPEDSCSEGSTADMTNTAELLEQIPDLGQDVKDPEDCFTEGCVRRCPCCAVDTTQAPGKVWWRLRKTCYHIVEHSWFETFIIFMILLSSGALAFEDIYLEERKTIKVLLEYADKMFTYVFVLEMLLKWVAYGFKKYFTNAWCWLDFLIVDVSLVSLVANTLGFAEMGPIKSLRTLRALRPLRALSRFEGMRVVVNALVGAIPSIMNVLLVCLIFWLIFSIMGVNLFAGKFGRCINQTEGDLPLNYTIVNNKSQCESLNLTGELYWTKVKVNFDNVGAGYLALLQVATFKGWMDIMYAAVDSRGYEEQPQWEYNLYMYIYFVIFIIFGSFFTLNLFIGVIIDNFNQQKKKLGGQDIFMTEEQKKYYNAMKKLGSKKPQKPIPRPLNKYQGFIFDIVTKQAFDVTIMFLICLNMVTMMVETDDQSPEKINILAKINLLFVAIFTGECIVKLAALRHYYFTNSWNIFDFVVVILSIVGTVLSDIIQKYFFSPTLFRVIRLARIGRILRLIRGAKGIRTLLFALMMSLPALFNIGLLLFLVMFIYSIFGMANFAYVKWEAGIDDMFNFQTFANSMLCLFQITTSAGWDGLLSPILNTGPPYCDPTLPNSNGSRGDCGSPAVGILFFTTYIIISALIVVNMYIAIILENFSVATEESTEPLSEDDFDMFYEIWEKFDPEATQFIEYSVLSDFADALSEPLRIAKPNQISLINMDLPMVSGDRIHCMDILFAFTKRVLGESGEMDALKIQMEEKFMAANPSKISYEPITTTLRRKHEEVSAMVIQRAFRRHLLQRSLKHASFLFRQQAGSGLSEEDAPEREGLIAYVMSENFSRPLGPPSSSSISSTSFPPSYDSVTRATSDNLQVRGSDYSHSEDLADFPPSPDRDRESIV

| Structure (SMILES) | hyperpolarizing shift of Vhalf of steady-state fast inactivation ([1]; 100 µM, n = 9) [mV] | slope factor k of steady-state fast inactivation ([1]; post application of 100 µM BPA, pre 5.6±0.3) | Vhalf of steady-state fast inactivation ([1]; post application of 100 µM BPA, pre −89.3±1.5 mV, n = 9) [mV] | τ of single exponential fit of current decay ([2]; test pulse to −10 mV, pre 1.1±0.08 ms) [ms] | Vhalf of activation ([2]; pre −32.0±2.5 mV) [mV] | Kd [3] [µM] | use-dependent block in F1760A compared to WT ([4]; 30 µM) | half-life in the body [5] [h] | Kd [6] [µM] | Kd ([7]; WT hNav1.5, Vhold −90 mV) [µM] | Kd ([7]; WT hNav1.5, Vhold −120 mV) [µM] | lowest concentration tested at which hNav1.5 currents were not affected (no effect level, NOEL) ([7]; tonic block) [nM] | lowest concentration to have a significant effect on hNav1.5 ([7]; tonic block, Fig. 1A) [µM] | use-dependent block [8] | use-dependent current decline ([8]; all frequencies tested (1 to 100 Hz), WT hNav1.5) | mean human blood levels [9] [nM] | highest reported blood level ([9]; human) [nM] | tonic and use-dependent block in F1760A compared to WT ([4]; 150 µM) | tonic block ([7]; 30 µM, WT hNav1.5) |
| --- | --- | --- | --- | --- | --- | --- | --- | --- | --- | --- | --- | --- | --- | --- | --- | --- | --- | --- | --- |
| CC(C)(c1ccc(O)cc1)c1ccc(O)cc1 [BPA, Bisphenol A] | 15.8±1.1 | 6.5±0.2 | −105.1±2.1 | 1.13 ± 0.1 | −32.9±3.7 | 104 ± 6.7 | robustly reduced | < 6 | 58.6 ± 8 | 25.4 ± 1.3 | 74 ± 7.6 | 100 | 1 | significant use-dependent block | enhance use-dependent current decline | ~10 | 290 | – | – |
| Cc1cccc(C)c1OCC(C)N (centres unmarked) [mexiletine, reference compound] | – | – | – | – | – | – | – | – | – | – | – | – | – | significant use-dependent block | – | – | – | reduced tonic and use-dependent block | almost absent |
